{
  "source": "ChEMBL document CHEMBL1687744",
  "about": "“Furanone at subinhibitory concentrations enhances staphylococcal biofilm formation by luxS repression” (Antimicrob Agents Chemother, 2009)",
  "key": {"Staphylococcus aureus [1]": {"system": "Staphylococcus aureus", "assay": "Antimicrobial activity against Staphylococcus aureus 113 by macrodilution method", "type": "functional"}, "Bacillus subtilis [2]": {"system": "Bacillus subtilis", "assay": "Antimicrobial activity against Bacillus subtilis by macrodilution method", "type": "functional"}, "Pseudomonas aeruginosa [3]": {"system": "Pseudomonas aeruginosa", "assay": "Inhibition of biofilm formation of Pseudomonas aeruginosa PAO1 at 0.322 uM to 2.58 mM", "type": "functional, organism-based"}, "[4]": {"system": "Staphylococcus epidermidis", "assay": "Bactericidal activity against ica gene-deficient Staphylococcus epidermidis 1457 at >10 uM after 18 hrs by CFU count assay", "type": "functional, organism-based"}, "L929 [5]": {"system": "L929", "assay": "Cytotoxicity against mouse L929 cells after 24 hrs at 28.4 +/- 8.4 uM by LDH release assay", "type": "cell-based", "settings": "l929, 24 h"}, "Pseudomonas aeruginosa [6]": {"system": "Pseudomonas aeruginosa", "assay": "Antimicrobial activity against Pseudomonas aeruginosa PAO1 by macrodilution method", "type": "functional"}, "[7]": {"system": "Staphylococcus epidermidis", "assay": "Effect on biofilm formation in luxS gene-deficient Staphylococcus epidermidis 1457 at >10 uM by crystal violet staining", "type": "functional, organism-based"}, "[8]": {"system": "Staphylococcus epidermidis", "assay": "Induction of biofilm formation in ica gene-deficient Staphylococcus epidermidis 1457 after 18 hrs by crystal violet staining", "type": "functional, organism-based"}, "Staphylococcus aureus [9]": {"system": "Staphylococcus aureus", "assay": "Bactericidal activity against Staphylococcus aureus 113 at >10 uM after 18 hrs by CFU count assay", "type": "functional, organism-based"}, "[10]": {"system": "Staphylococcus epidermidis", "assay": "Bactericidal activity against Staphylococcus epidermidis 1457 at >10 uM after 18 hrs by CFU count assay", "type": "functional, organism-based"}, "Staphylococcus aureus [11]": {"system": "Staphylococcus aureus", "assay": "Increase in biofilm formation in Staphylococcus aureus Newman by crystal violet staining", "type": "functional, organism-based"}, "Staphylococcus aureus [12]": {"system": "Staphylococcus aureus", "assay": "Increase in biofilm formation in agr gene-deficient Staphylococcus aureus Newman by crystal violet staining", "type": "functional, organism-based"}, "[13]": {"system": "Staphylococcus epidermidis", "assay": "Increase in biofilm formation in Staphylococcus epidermidis 047 at 0.1 times MIC to 0.2 X MIC after 18 hrs by crystal violet staining", "type": "functional, organism-based"}, "[14]": {"system": "Staphylococcus epidermidis", "assay": "Effect on agr quorum sensing system in Staphylococcus epidermidis 1457 assessed as RNA3 expression level at 2.5 to 20 uM", "type": "functional, organism-based"}, "[15]": {"system": "Staphylococcus epidermidis", "assay": "Antimicrobial activity against Staphylococcus epidermidis 047 by macrodilution method", "type": "functional"}, "[16]": {"system": "Staphylococcus epidermidis", "assay": "Antimicrobial activity against ica gene-deficient Staphylococcus epidermidis 047 by macrodilution method", "type": "functional"}, "Bacillus subtilis [17]": {"system": "Bacillus subtilis", "assay": "Induction of biofilm formation in Bacillus subtilis after 18 hrs by crystal violet staining", "type": "functional, organism-based"}, "[18]": {"system": "Staphylococcus epidermidis", "assay": "Induction of biofilm formation in Staphylococcus epidermidis 1457 at 0.1 times MIC to 0.2 X MIC after 18 hrs by crystal violet staining", "type": "functional, organism-based"}, "[19]": {"system": "Staphylococcus epidermidis", "assay": "Bactericidal activity against ica gene-deficient Staphylococcus epidermidis 047 at >10 uM after 18 hrs by CFU count assay", "type": "functional, organism-based"}, "[20]": {"system": "Staphylococcus epidermidis", "assay": "Reduction luxS mRNA level in Staphylococcus epidermidis 1457 at 20 uM", "type": "functional, organism-based"}, "[21]": {"system": "Staphylococcus epidermidis", "assay": "Induction of biofilm formation in ica gene-deficient Staphylococcus epidermidis 047 after 18 hrs by crystal violet staining", "type": "functional, organism-based"}, "Staphylococcus aureus [22]": {"system": "Staphylococcus aureus", "assay": "Antimicrobial activity against Staphylococcus aureus Newman by macrodilution method", "type": "functional"}, "[23]": {"system": "Staphylococcus epidermidis", "assay": "Antimicrobial activity against ica gene-deficient Staphylococcus epidermidis 1457 by macrodilution method", "type": "functional"}, "Staphylococcus aureus [24]": {"system": "Staphylococcus aureus", "assay": "Increase in biofilm formation in Staphylococcus aureus Newman after 18 hrs by crystal violet staining", "type": "functional, organism-based"}, "[25]": {"system": "Staphylococcus epidermidis", "assay": "Bactericidal activity against Staphylococcus epidermidis 1457 at >50 uM after 18 hrs by CFU count assay", "type": "functional, organism-based"}, "[26]": {"system": "Staphylococcus epidermidis", "assay": "Antimicrobial activity against Staphylococcus epidermidis 1457 by macrodilution method", "type": "functional"}, "[27]": {"system": "Staphylococcus epidermidis", "assay": "Increase in polysaccharide intercellular adhesin in Staphylococcus epidermidis 1457 at 2.5 to 20 uM by ant-PIA staining", "type": "functional, organism-based"}, "Staphylococcus aureus [28]": {"system": "Staphylococcus aureus", "assay": "Bactericidal activity against Staphylococcus aureus Newman at >10 uM after 18 hrs by CFU count assay", "type": "functional, organism-based"}, "Staphylococcus aureus [29]": {"system": "Staphylococcus aureus", "assay": "Induction of biofilm formation in Staphylococcus aureus 113 after 18 hrs by crystal violet staining", "type": "functional, organism-based"}, "[30]": {"system": "Staphylococcus epidermidis", "assay": "Bactericidal activity against Staphylococcus epidermidis 047 at >10 uM after 18 hrs by CFU count assay", "type": "functional, organism-based"}, "L929 [31]": {"system": "L929", "assay": "Cytotoxicity against mouse L929 cells after 24 hrs at 12.1 +/- 5.7 uM by LDH release assay", "type": "cell-based", "settings": "l929, 24 h"}, "[32]": {"system": "Staphylococcus epidermidis", "assay": "Induction of biofilm formation in Staphylococcus epidermidis 1457 at 1 to 100 uM after 18 hrs by crystal violet staining", "type": "functional, organism-based"}, "L929 [33]": {"system": "L929", "assay": "Cytotoxicity against mouse L929 cells after 24 hrs at 18.6 +/- 12.3 uM by LDH release assay", "type": "cell-based", "settings": "l929, 24 h"}, "L929 [34]": {"system": "L929", "assay": "Cytotoxicity against mouse L929 cells after 24 hrs at 38.35 +/- 15.0 uM by LDH release assay", "type": "cell-based", "settings": "l929, 24 h"}},
  "note": "Activity calls are given as the source filed them. The rule behind the calls is not given here.",
  "data": [
    {"smiles": "CCCCC1=C(Br)/C(=C/Br)OC1=O", "values": [
      {"measurement": "MBC", "setting": "Staphylococcus aureus [1]", "value": "> 130", "unit": "µM"},
      {"measurement": "MIC", "setting": "Staphylococcus aureus [1]", "value": 15, "unit": "µM"},
      {"measurement": "MBC", "setting": "Bacillus subtilis [2]", "value": 100, "unit": "µM"},
      {"measurement": "MIC", "setting": "Bacillus subtilis [2]", "value": 100, "unit": "µM"},
      {"measurement": "inhibition", "setting": "Pseudomonas aeruginosa [3]", "value": "Active"},
      {"measurement": "Activity", "setting": "[4]", "value": "Active"},
      {"measurement": "Activity", "setting": "L929 [5]", "value": 30, "unit": "%"},
      {"measurement": "MBC", "setting": "Pseudomonas aeruginosa [6]", "value": "> 130", "unit": "µM"},
      {"measurement": "MIC", "setting": "Pseudomonas aeruginosa [6]", "value": "> 130", "unit": "µM"},
      {"measurement": "Activity", "setting": "[7]", "value": "inactive"},
      {"measurement": "Activity", "setting": "[8]", "value": "inactive"},
      {"measurement": "Activity", "setting": "Staphylococcus aureus [9]", "value": "Active"},
      {"measurement": "Activity", "setting": "[10]", "value": "Active"},
      {"measurement": "Activity", "setting": "Staphylococcus aureus [11]", "value": "Active"},
      {"measurement": "Activity", "setting": "Staphylococcus aureus [12]", "value": "Active"},
      {"measurement": "Activity", "setting": "[13]", "value": "Active"},
      {"measurement": "Activity", "setting": "[14]", "value": "inactive"},
      {"measurement": "MBC", "setting": "[15]", "value": "> 130", "unit": "µM"},
      {"measurement": "MIC", "setting": "[15]", "value": 50, "unit": "µM"},
      {"measurement": "MBC", "setting": "[16]", "value": "> 130", "unit": "µM"},
      {"measurement": "MIC", "setting": "[16]", "value": 30, "unit": "µM"},
      {"measurement": "Activity", "setting": "Bacillus subtilis [17]", "value": "inactive"},
      {"measurement": "Activity", "setting": "[18]", "value": "Active"},
      {"measurement": "Activity", "setting": "[19]", "value": "Active"},
      {"measurement": "Activity", "setting": "[20]", "value": "Active"},
      {"measurement": "Activity", "setting": "[21]", "value": "inactive"},
      {"measurement": "MBC", "setting": "Staphylococcus aureus [22]", "value": "> 130", "unit": "µM"},
      {"measurement": "MIC", "setting": "Staphylococcus aureus [22]", "value": 15, "unit": "µM"},
      {"measurement": "MBC", "setting": "[23]", "value": "> 130", "unit": "µM"},
      {"measurement": "MIC", "setting": "[23]", "value": 65, "unit": "µM"},
      {"measurement": "Activity", "setting": "Staphylococcus aureus [24]", "value": "Active"},
      {"measurement": "Activity", "setting": "[25]", "value": "Active"},
      {"measurement": "MBC", "setting": "[26]", "value": "> 130", "unit": "µM"},
      {"measurement": "MIC", "setting": "[26]", "value": 50, "unit": "µM"},
      {"measurement": "Activity", "setting": "[27]", "value": "Active"},
      {"measurement": "Activity", "setting": "Staphylococcus aureus [28]", "value": "Active"},
      {"measurement": "Activity", "setting": "Staphylococcus aureus [29]", "value": "inactive"},
      {"measurement": "Activity", "setting": "[30]", "value": "Active"}
    ]},
    {"smiles": "CCCC(OCCOCCOCCN=[N+]=[N-])C1=C(Br)/C(=C/Br)OC1=O", "note": "(configuration not stated)", "values": [
      {"measurement": "Activity", "setting": "L929 [31]", "value": 30, "unit": "%"},
      {"measurement": "Activity", "setting": "[32]", "value": "inactive"},
      {"measurement": "Activity", "setting": "[25]", "value": "Active"}
    ]},
    {"smiles": "CCCC(Br)C1=C(Br)/C(=C/Br)OC1=O", "note": "(configuration not stated)", "values": [
      {"measurement": "Activity", "setting": "L929 [33]", "value": 30, "unit": "%"},
      {"measurement": "Activity", "setting": "[32]", "value": "inactive"},
      {"measurement": "Activity", "setting": "[25]", "value": "Active"}
    ]},
    {"smiles": "C#CCOC(CCC)C1=C(Br)/C(=C/Br)OC1=O", "note": "(configuration not stated)", "values": [
      {"measurement": "Activity", "setting": "L929 [34]", "value": 30, "unit": "%"},
      {"measurement": "Activity", "setting": "[32]", "value": "inactive"},
      {"measurement": "Activity", "setting": "[25]", "value": "Active"}
    ]}
  ]
}
